Read-outs that look alike come from different tables or passages of the source.
Legend:
[1] = system: BAX; assay: Western blot, BAX level in HepG2 cells; format: cell-based, human; conditions: HepG2, 24 h
Procedure: (§1) Compound 12lwas subjected to further cellular mechanistic study. The cellular levels of BAX and Bcl-2 were measured using the western blot technique after compound 12l was applied to HepG2 cells for 24 h.
(§2) The western blot technique was applied in accordance with the comprehensive description in Supplementary data[38–40] […]
(§3) The proteins expression of cleaved caspase‐3, BAX, and Bcl‐2 were determined using Western blot analysis. In brief, HepG2 cells were treated with control, or with the synthesized compounds.
Then cells were lysed in 250 μL precold lysis buffer (pH 7.4: Tris‐Base [10 mM], NaCl [100 mM], ethylenediaminetetraacetic acid [EDTA, 25 mM], ethylene glycol bis (2‐aminoethyl) tetraacetic acid [EGTA, 25 mM], 1% [v/v] NP‐40, and 1% [v/v] Triton X‐100) supplemented with 1:350 protease:phosphatase inhibitors cocktail (Sigma). The cells were immediately frozen at −20°C for 1.5 hours for further lysis, collected by cell scraper, sonicated 3 × 10 seconds, and centrifuged (13000 rpm, 15 minutes). Total protein concentrations in the supernatant were determined colorimetrically using the Pierce 660 nm Protein Assay method (Thermo Fisher Scientific, Rockford, IL), with BSA as the standard. Equal amounts of protein (25 μg) samples were mixed with SDS‐loading buffer (pH 6.8: Tris‐HCl [700 mM], dithiothreitol [DTT, 600 mM], sodium dodecyl sulfate [SDS, 12%], glycerol [60%], and bromophenol blue [0.012%]), denatured by boiling at 95°C for 10 minutes, allowed to cool on ice for 15 minutes, vortexed vigorously for 30 seconds and loaded into SDS‐polyacrylamide gel and separated by an electrophoresis unit (Cleaver Scientific Ltd, UK), transferred onto polyvinylidene fluoride membranes (Bio‐Rad) for 35 minutes using a Trans‐Blot SD semi‐dry transfer cell (Bio‐Rad) at 250 mA and 22 V. Membranes were blocked with 5% (w/v) blotting grade dry milk (Bio‐Rad) in Tris‐buffered saline/Tween‐20 (TBS‐ T) (pH 7.5: Tris‐base [20 mM], NaCl [150 mM], and 0.05% [v/v] Tween‐ 20) while shaking for 1.5 hour at RT, and then incubated with the corresponding primary antibody against cleaved caspase‐3 antibody ([…], #9661; Cell Signaling Technology), β‐actin (1:2000, #A5060; Sigma), BAX (Biovision, USA) and Bcl‐2( Bioimaging, system, syngene, UK) for 9‐10 hours at 4°C in a […]
three separate experiments. […]
the synthesized compounds towards VEGFR-2. The crystal structure of VEGFR-2 was […]
2.03 Å). Sorafenib was used as reference ligand. To prepare the target protein, water molecules […]
fields. […] The validation […]
process was performed by redocking the co-crystallized ligand. The designed compounds together […]
followed by energy minimization then prepared for docking. Docking process was carried through […]
binding mode with target molecule.

[2] = system: Bcl-2; assay: Western blot, Bcl-2 level in HepG2 cells; format: cell-based, human; conditions: HepG2, 24 h
Procedure: as §1, §2, §3
(§4) Then cells were lysed in 250 μL precold lysis buffer (pH 7.4: Tris‐Base [10 mM], NaCl [100 mM], ethylenediaminetetraacetic acid [EDTA, 25 mM], ethylene glycol bis (2‐aminoethyl) tetraacetic acid [EGTA, 25 mM], 1% [v/v] NP‐40, and 1% [v/v] Triton X‐100) supplemented with 1:350 protease:phosphatase inhibitors cocktail (Sigma). The cells were immediately frozen at −20°C for 1.5 hours for further lysis, collected by cell scraper, sonicated 3 × 10 seconds, and centrifuged (13000 rpm, 15 minutes). Total protein concentrations in the supernatant were determined colorimetrically using the Pierce 660 nm Protein Assay method (Thermo Fisher Scientific, Rockford, IL), with BSA as the standard. […]

[3] = system: HepG2 cell line; assay: In vitro anti-proliferative MTT assay, HepG2; format: cell-based, human; conditions: Homo sapiens
Description: The cytotoxicity results were obtained as median growth inhibitory concentration (IC50).
MTT assay protocol. This method was applied in accordance with the comprehensive description in Supplementary data. […]
5 Raw data of cytotoxity and VEGFR -2 assay […]
Experimental of biological testing
1. In vitro anti-proliferative activity
MTT assay protocol was applied to assess the anti-proliferative activity of the synthesized compounds. Two human cancer cell lines (MCF-7 and HepG-2) and one normal cell line (WI-38) were used in this test. At first, the cell lines were cultured in RPMI -1640 medium with 10% fetal bovine serum. Antibiotics (100 units/ml penicillin and100 µg/ml streptomycin ) were added at 37 °C in a 5% CO2 incubator. The cell lines were seeded in a 96-well plate at a density of 1.0 x 10^4 cells / well at 37 °C for 24 h under 5% CO2. After incubation, the cells were treated with different […]
concentration of the synthesized compounds and incubated for 24 h. After 24 h of drug treatment, 20 µl of MTT solution at 5mg/ml was added and incubated for 4 h. Dimethyl sulfoxide (DMSO) in volume of 100 µl was added into each well to dissolve the purple formazan formed. The colorimetric assay was measured and recorded at absorbance of 570 nm using a plate reader (EXL 800, USA). The relative cell viability in percentage was calculated as (A570 of treated samples/A570 of untreated sample) X 100. […]

[4] = target: T1, VEGFR-2 (Homo sapiens, UniProt P35968); assay: In vitro VEGFR-2 kinase assay (ELISA kit); format: biochemical
T1 construct: purchased
Procedure: The assay was applied by ELISA kits in accordance with the comprehensive description in[18]^,[33] as described in Supplementary data. […]
2. In vitro VEGFR-2 kinase assay
All the synthesized compounds were tested for its inhibitory activity against VEGFR-2. Human VEGFR-2 ELISA kit (Enzyme-Linked Immunosorbent Assay) was utilized in this test. At first, specific antibody for VEGFR-2 was seeded on a 96-well plate and 100 μL of the standard solution or the tested compound was added, all were incubated at room temperature for 2.5 h. Then washed, 100 μL of the prepared biotin antibody was added, then incubated at room temperature for additional 1 h. and washed. Then, 100 μL of streptavidin solution was added and incubated for 45 min. at room temperature. Washed again, 100 μL of TMB Substrate reagent was added and incubated for 30 min. at room temperature. 50 μL of the stop solution was added, then read at 450 […]
nm immediately. […]

[5] = system: Caspase-3; assay: Western blot, caspase-3 level in HepG2 cells; format: cell-based, human; conditions: HepG2, 10.50 µM, 24 h
Procedure: Caspase-3 has a key role in apoptosis initiation and execution[26]^,[27]. The western blot technique was used to investigate the effect of compound 12 l, the most promising member, on the caspase-3 level. HepG2 cells were treated with 12l (10.50 µM) for 24 h.
The western blot technique was applied in accordance with the comprehensive description in Supplementary data[38–40]
4. Flow cytometry analysis for apoptosis
Flow cytometry cell apoptosis analysis was used to investigate the apoptotic effect of the synthesized compounds. […] The stained cells were measured using Epics XL-MCL™ Flow Cytometer and analyzed using Flowing software.
The proteins expression of cleaved caspase‐3, BAX, and Bcl‐2 were determined using Western blot analysis. […]
as §4, with “The cells were immediately frozen at −20°C for 1.5 hours for further lysis, collected by cell scraper, sonicated 3 × 10 seconds, and centrifuged (13000 rpm, 15 minutes).” left out

T1 sequence (P35968 20-1356): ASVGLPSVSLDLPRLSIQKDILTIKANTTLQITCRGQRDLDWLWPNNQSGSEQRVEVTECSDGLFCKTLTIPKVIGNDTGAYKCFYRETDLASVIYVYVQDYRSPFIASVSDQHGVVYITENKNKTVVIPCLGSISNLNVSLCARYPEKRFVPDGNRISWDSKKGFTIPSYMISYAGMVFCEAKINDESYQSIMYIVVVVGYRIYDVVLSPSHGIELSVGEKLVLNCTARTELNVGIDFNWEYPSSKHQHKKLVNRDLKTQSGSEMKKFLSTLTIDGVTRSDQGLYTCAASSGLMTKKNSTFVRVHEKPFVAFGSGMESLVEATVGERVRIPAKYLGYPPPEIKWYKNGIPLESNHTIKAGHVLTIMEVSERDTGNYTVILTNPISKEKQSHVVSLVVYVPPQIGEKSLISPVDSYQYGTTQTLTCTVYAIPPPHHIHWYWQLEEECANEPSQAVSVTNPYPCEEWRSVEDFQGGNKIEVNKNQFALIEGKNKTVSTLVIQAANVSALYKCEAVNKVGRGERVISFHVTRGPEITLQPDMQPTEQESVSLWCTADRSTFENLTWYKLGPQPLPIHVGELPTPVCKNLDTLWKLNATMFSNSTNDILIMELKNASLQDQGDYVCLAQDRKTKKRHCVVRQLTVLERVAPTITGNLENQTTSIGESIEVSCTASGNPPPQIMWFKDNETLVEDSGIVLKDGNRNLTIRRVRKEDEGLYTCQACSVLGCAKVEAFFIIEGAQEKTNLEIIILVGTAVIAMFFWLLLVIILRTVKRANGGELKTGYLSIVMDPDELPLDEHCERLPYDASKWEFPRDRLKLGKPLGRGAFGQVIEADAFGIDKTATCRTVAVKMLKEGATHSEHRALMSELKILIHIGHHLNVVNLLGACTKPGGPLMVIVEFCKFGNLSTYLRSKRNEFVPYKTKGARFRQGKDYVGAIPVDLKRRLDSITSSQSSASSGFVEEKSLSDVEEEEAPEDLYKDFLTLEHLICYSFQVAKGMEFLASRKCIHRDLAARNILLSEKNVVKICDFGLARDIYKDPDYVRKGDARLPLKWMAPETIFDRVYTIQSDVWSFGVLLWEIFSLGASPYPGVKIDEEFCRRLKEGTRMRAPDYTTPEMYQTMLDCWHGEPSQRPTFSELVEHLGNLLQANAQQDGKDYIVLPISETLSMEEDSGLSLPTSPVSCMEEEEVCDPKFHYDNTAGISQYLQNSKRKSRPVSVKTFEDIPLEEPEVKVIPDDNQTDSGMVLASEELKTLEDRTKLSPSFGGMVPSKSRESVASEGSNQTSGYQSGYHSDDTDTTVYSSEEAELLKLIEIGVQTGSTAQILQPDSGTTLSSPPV

Structure (SMILES): Cc1ccc2oc(SCC(=O)Nc3ccc(C(=O)Nc4cccc(Cl)c4)cc3)nc2c1 [Compound 12l, N-(3-Chlorophenyl)-4–(2-((5-methylbenzo[d]oxazol-2-yl)thio)acetamido)benzamide]
- Protein expression (normalized to β-actin) BAX ([1]; control = 1.00): 3.40 ± 0.15
- Protein expression (normalized to β-actin) BAX/Bcl-2 ratio ([1]; control = 1.00): 6.83 ± 0.96
- BAX level increase ([1]; versus control): 3.40 fold
- BAX/Bcl-2 ratio increase ([1]; versus control): 6.83 fold
- Protein expression (normalized to β-actin) Bcl-2 ([2]; control = 1.00): 0.47 ± 0.05
- Bcl-2 level decrease ([2]; versus control): 2.12 fold
- IC50 ([3]; HepG2, 24 h, MTT, 24 h treatment, mean of three experiments, read-out: In vitro IC50 HepG2): 10.5 ± 0.8 µM
- IC50 ([3]; HepG2, supplement raw data, dose-response curve fit, read-out: LogIC50 best-fit value, HepG2 (converted)): 10.5 µM
- IC50 ([4]; ELISA kit): 0.0974 µM
- HillSlope best-fit value, VEGFR-2 ([4]; supplement raw data, curve fit): -0.4614
- LogIC50 best-fit value, VEGFR-2 ([4]; supplement raw data, curve fit): 1.988 Log (nM)
- Protein expression (normalized to β-actin) Caspase-3 ([5]; control = 1.00): 2.98 ± 0.13
- Caspase-3 level increase ([5]; versus control): 2.98 fold

From PMC9327782, “Benzoxazole derivatives as new VEGFR-2 inhibitors and apoptosis inducers: design, synthesis, in silico studies, and antiproliferative evaluation” (Journal of Enzyme Inhibition and Medicinal Chemistry, 2022)
